In US20160051536A1, “COMPOSITIONS TO ALLEVIATE PRESYSTEMIC METABOLISM OF OPIOIDS” (VIRGINIA COMMONWEALTH UNIVERSITY, priority 2013, published 2016):

System: not given
Assay: not given
Conditions: in words; cited from earlier work

| Molecule | oral bioavailability |
| --- | --- |
| C=CCN1CC[C@]23c4c5ccc(O)c4O[C@H]2C(=O)CC[C@@]3(O)[C@H]1C5 [naloxone] | low |

System: UGT
Assay: Effect of inhibitors on buprenorphine-glucuronide formation in LS180 cells
Conditions: buprenorphine 10 μM, inhibitor 100 μM, 2 hours, vs control, p<0.05, n.d. = glucuronide not detected
Protocol: Unless otherwise indicated, the in vitro experiments described in the following section were conducted using human colon adenocarcinoma LS180 cells.
Human intestinal cells (LS180) were cultured in Dulbecco's modified Eagle's medium (DMEM) supplemented with 10% fetal bovine serum and 1% non-essential amino acids in microplates. […] The cells were rinsed with DPBS, aspirated, and the solutions (37° C.) were added to the cells and incubated for 2 hours. The reactions were stopped and protein was precipitated by adding 20% acetonitrile. After freezing (−80° C.) and thawing, samples were centrifuged and analyzed by HPLC using an Alltima HP C18 column (4.6×100 mm, 3 μm) with gradient elution (mobile phase A: acetonitrile; mobile phase B: 10% acetonitrile, 90% aqueous 25 mM ammonium acetate; 0-78% A) followed by detection by fluoresence (excitation 283 nm, emission 346 nm) and quantitation using Waters Empower 2 software. Results were analyzed by one-way ANOVA with Dunnett's post-test (control vs. inhibitors); asterisk designates p<0.05; n.d. designates not detected.

| Molecule | formation of buprenorphine glucuronide |
| --- | --- |
| CC=Cc1ccc(O)c(OC)c1 [isoeugenol] | not detected |
| CCOc1cc(C=O)ccc1O [ethyl vanillin] | significantly decreased |
| CCCOC(=O)c1ccc(O)cc1 [propylparaben] | significantly decreased |
| CC(=O)CCc1ccc(O)cc1 [rasketone] | significantly decreased |
| Oc1ccc(C=Cc2cc(O)cc(O)c2)cc1 [resveratrol] | not detected |
| COc1cc(CCC(C)=O)ccc1O [zingerone] | significantly decreased |
| pinoresinol | not detected |
| C=CCc1ccc(O)c(-c2cc(CC=C)ccc2O)c1 [magnolol] | significantly decreased |
| COc1cc(C2Oc3cc([C@H]4Oc5cc(O)cc(O)c5C(=O)[C@@H]4O)ccc3OC2CO)ccc1O (stereo partly shown) [silybin] | significantly decreased |
| CCCOC(=O)c1cc(O)c(O)c(O)c1 [propyl gallate] | not detected |
| COc1c(O)cc2oc3cc(O)c(CC=C(C)C)c(O)c3c(=O)c2c1CC=C(C)C [α-mangostin] | significantly decreased |
| COC(=O)c1ccc(O)cc1 [methylparaben] | trend toward a decrease |
| CCOc1cc(C2OCC(C)O2)ccc1O (stereo not shown) [ethyl vanillin propylene glycol acetal] | significantly decreased |
| COc1cc(C=O)ccc1O [vanillin] | significantly decreased |
| COc1cc(/C=C/C(=O)CC(=O)/C=C/c2ccc(O)c(OC)c2)ccc1O [curcumin] | not detected |
| O=c1c(O)c(-c2ccc(O)c(O)c2)oc2cc(O)cc(O)c12 [quercetin] | not detected |
| C=CCc1ccc(O)c(OC)c1 [eugenol] | significantly decreased |
| COc1ccccc1O [guaiacol] | significantly decreased |

Same assay, conditions: buprenorphine 10 μM, single inhibitors 24 μM, pairs 12 μM each, triple 8 μM each, p<0.05

| Molecule | formation of buprenorphine glucuronide |
| --- | --- |
| CC=Cc1ccc(O)c(OC)c1 [isoeugenol] | significantly inhibited |
| CCCOC(=O)c1cc(O)c(O)c(O)c1 [propyl gallate] | significantly inhibited |
| COc1cc(C=O)ccc1O [vanillin] | significantly inhibited |
